Measured values as given in patent US9974306B2, “Herbicidal combinations for tolerant soybean cultures” (priority 2012, dated 2018).

Legend:
GLXMA GM_W336 = experiment: Post-emergence greenhouse treatment, visual rating of effect on W336 transgenic (HPPD inhibitor tolerant) soybean; assay type: in vivo; conditions: for Effect (%): GLXMA GM_W336
Description: (§1) The soybeans were grown under the same conditions as described above. The following three varieties were used in the tests:
(§2) 1) W336—Transgenic soybean plants comprising a chimeric gene encoding a W336 mutant HPPD protein of Pseudomonas fluorescens (U.S. Pat. No. 6,245,968) fused to the optimized transit peptide for chloroplast targeting (U.S. Pat. No. 5,510,471), and under the control of the 35S CaMV promoter (Odell et al., 1985, Nature 313: 810-812) fused to the 5′ enhancer sequence of TEV (Carrington and Freed, 1990, J. Virol. 64: 1590-1597), with as 3′ transcript termination and polyadenylation region that of the CaMV 35S gene (Sanfacon et al., 1991, Genes & Development 5:141-149), abbreviated as “W336 soybean plants” herein. 2) MERLIN—conventional 3) PROTINA—conventional
(§3) Two sets of soybeans reaching different growth stages at application time were prepared: one up to growth stage BBCH 11 (1-2 leaf stage) and the other up to BBCH 13 (3-4 leaf stage). Both soybean sets were treated at the same time (together with the weeds) but they were evaluated separately.
(§4) The applications were performed by post emergence treatments on the planted pots using a spray volume of 300 L water per hectare. The herbicides were applied alone and in combination as in the tables below.
(§5) The trial was conducted in the greenhouse ensuring optimal growing conditions.
(§6) The herbicidal effects were assessed 14 and 24 days following application by visual ratings comparing treated and untreated plants (0%=no effect to 100%=complete die-off).
(§7) The visual ratings are used to calculate interactions between treatments alone and combination treatments according to S. R. Colby, Weeds 15, pages 20 to 22 (1967).

GLXMA Protina = experiment: Post-emergence greenhouse treatment, visual rating of effect on conventional soybean PROTINA; assay type: in vivo; conditions: for Effect (%): GLXMA Protina
Description: as §1, §2, §3, §4, §5, §6, §7

GLXMA Merlin = experiment: Post-emergence greenhouse treatment, visual rating of effect on conventional soybean MERLIN; assay type: in vivo; conditions: for Effect (%): GLXMA Merlin, assessment 24 d
Description: as §1, §2, §3, §4, §5, §6, §7

SETFA = experiment: Post-emergence greenhouse treatment, visual rating of herbicidal effect; assay type: in vivo, Setaria faberi; conditions: 1-2 leaf
Description: (§8) Seeds of grass and broadleaf weeds were sown in pots (diameter: 8 cm) filled with a sandy loam soil. For the herbicide post-emergent treatment, the weeds were grown under optimal conditions up to a growth stage of BBCH 11 (1-2 leaf stage) to 14 (3-4 leaf stage) depending on species. The following weeds were used:
as §4, §5, §6, §7

SORHA = experiment: as above; assay type: in vivo, Sorghum halepense
Description: as §8, §4, §5, §6, §7

BIDPI = experiment: as above; assay type: in vivo, Bidens pilosa
Description: as §8, §4, §5, §6, §7

PHBPU = experiment: as above; assay type: in vivo, Pharbitis purpurea
Description: as §8, §4, §5, §6, §7

BRAPP = experiment: as above; assay type: in vivo, Brachiaria platyphylla; conditions: for Effect (%): BRAPP
Description: as §8, §4, §5, §6, §7

SETVI = experiment: as above; assay type: in vivo, Setaria viridis; conditions: 1-2 leaf; for Effect (%): SETVI, assessment 24 d; for Effect: 24 d
Description: as §8, §4, §5, §6, §7

POLCO = experiment: as above; assay type: in vivo, Polygonum convolvulus; conditions: for Effect (%): POLCO
Description: as §8, §4, §5, §6, §7

EPHHL = experiment: as above; assay type: in vivo, Euphorbia heterophylla
Description: as §8, §4, §5, §6, §7

[1] = 1-2 leaf, assessment 24 d, (A1) alone 2.5 g a.i./ha
[2] = 1-2 leaf, assessment 24 d, (A1) alone 5 g a.i./ha
[3] = 1-2 leaf, assessment 24 d, (A1) alone 10 g a.i./ha
[4] = 3-4 leaf, assessment 14 d, (A1) alone 5 g a.i./ha
[5] = 1-2 leaf, 14 d, 20 g a.i./ha alone
[6] = 1-2 leaf, 24 d, 5 g a.i./ha alone
[7] = 1-2 leaf, 24 d, 10 g a.i./ha alone
[8] = 1-2 leaf, 24 d, 20 g a.i./ha alone
[9] = 3-4 leaf, 14 d, 5 g a.i./ha alone
[10] = 3-4 leaf, 14 d, 20 g a.i./ha alone

SMILES: Cc1c(C(=O)c2cnn(C)c2O)ccc(S(C)(=O)=O)c1C1=NOCC1 [(A5), [3-(4,5-dihydro-1,2-oxazol-3-yl)-4-mesyl-o-tolyl](5-hydroxy-1-methylpyrazol-4-yl)methanone]
- Effect (GLXMA GM_W336; 1-2 leaf, 24 d, 1.5 g a.i./ha): 15%
- Effect (GLXMA GM_W336; 3-4 leaf, 14 d, 3 g a.i./ha): 30%
- Effect (GLXMA GM_W336; 3-4 leaf, 24 d, 3 g a.i./ha): 30%
- Effect (GLXMA Protina; 3-4 leaf, 14 d, 3 g a.i./ha): 50%
- Effect (GLXMA Protina; 3-4 leaf, 24 d, 3 g a.i./ha): 50%
- Effect (GLXMA Merlin; 1-2 leaf, 24 d, 1.5 g a.i./ha): 55%
- Effect (SETFA; 24 d, 1.5 g a.i./ha): 30%
- Effect (SORHA; 3-4 leaf, 14 d, 3 g a.i./ha): 15%
- Effect (SORHA; 3-4 leaf, 24 d, 3 g a.i./ha): 10%
- Effect (BIDPI; 3-4 leaf, 14 d, 3 g a.i./ha): 25%
- Effect (BIDPI; 3-4 leaf, 24 d, 3 g a.i./ha): 10%
- Effect (PHBPU; 1-2 leaf, 24 d, 1.5 g a.i./ha): 30%

SMILES: CS(=O)(=O)c1ccc(C(=O)C2C(=O)CCCC2=O)c(Cl)c1COCC(F)(F)F [(A1), 2-{2-chloro-4-mesyl-3-[(2,2,2-trifluoroethoxy)methyl]benzoyl}cyclohexane-1,3-dione]
- Effect (%) (GLXMA GM_W336; [1]): 15%
- Effect (%) (GLXMA GM_W336; [2]): 15%
- Effect (%) (GLXMA GM_W336; [3]): 15%
- Effect (%) (GLXMA GM_W336; [4]): 20%
- Effect (%) (GLXMA Protina; [1]): 65%
- Effect (%) (GLXMA Protina; [2]): 75%
- Effect (%) (GLXMA Protina; [4]): 55%
- Effect (%) (GLXMA Merlin; 1-2 leaf, (A1) alone 5 g a.i./ha): 75%
- Effect (%) (GLXMA Merlin; 1-2 leaf, (A1) alone 10 g a.i./ha): 80%
- Effect (%) (BRAPP; [2]): 10%
- Effect (%) (BRAPP; [3]): 10%
- Effect (%) (BRAPP; [4]): 25%
- Effect (%) (SETFA; SETFA, assessment 24 d, (A1) alone 2.5 g a.i./ha): 0%
- Effect (%) (SETVI; (A1) alone 5 g a.i./ha): 40%
- Effect (%) (SETVI; (A1) alone 10 g a.i./ha): 40%
- Effect (%) (SORHA; SORHA, 1-2 leaf, assessment 24 d, (A1) alone 5 g a.i./ha): 20%
- Effect (%) (BIDPI; BIDPI, 3-4 leaf, assessment 14 d, (A1) alone 5 g a.i./ha): 10%
- Effect (%) (POLCO; [1]): 0%
- Effect (%) (POLCO; [2]): 0%
- Effect (%) (POLCO; [4]): 10%

SMILES: CS(=O)(=O)c1cc(C(F)(F)F)ccc1C(=O)c1cnoc1C1CC1 [(A4), (5-cyclopropyl-1,2-oxazol-4-yl)(α,α,α-trifluoro-2-mesyl-p-tolyl)methanone]
- Effect (GLXMA GM_W336; 1-2 leaf, 24 d, 20 g a.i./ha): 10%
- Effect (GLXMA GM_W336; 3-4 leaf, 14 d, 10 g a.i./ha): 10%
- Effect (GLXMA Protina; 1-2 leaf, 24 d, 20 g a.i./ha): 75%
- Effect (GLXMA Protina; 3-4 leaf, 14 d, 10 g a.i./ha): 35%
- Effect (BRAPP; 3-4 leaf, 14 d, 10 g a.i./ha): 15%
- Effect (SETVI; 20 g a.i./ha): 10%
- Effect (SORHA; 1-2 leaf, 24 d, 20 g a.i./ha): 40%
- Effect (PHBPU; 3-4 leaf, 14 d, 10 g a.i./ha): 40%

SMILES: COCCOCc1nc(C(F)(F)F)ccc1C(=O)C1=C(O)C2CCC(C2)C1=O (stereo not drawn) [(A6), 4-hydroxy-3-{2-[(2-methoxyethoxy)methyl]-6-(trifluoromethyl)-3-pyridylcarbonyl}bicyclo[3.2.1]oct-3-en-2-one]
- Effect (GLXMA GM_W336; 1-2 leaf, 14 d, 5 g a.i./ha): 5%
- Effect (GLXMA GM_W336; 3-4 leaf, 14 d, 10 g a.i./ha): 25%
- Effect (GLXMA GM_W336; 3-4 leaf, 14 d, 20 g a.i./ha): 30%
- Effect (GLXMA GM_W336; 3-4 leaf, 24 d, 10 g a.i./ha): 25%
- Effect (GLXMA GM_W336; 3-4 leaf, 24 d, 20 g a.i./ha): 30%
- Effect (GLXMA Protina; 1-2 leaf, 14 d, 5 g a.i./ha): 50%
- Effect (GLXMA Protina; 3-4 leaf, 14 d, 10 g a.i./ha): 45%
- Effect (GLXMA Protina; 3-4 leaf, 14 d, 20 g a.i./ha): 60%
- Effect (GLXMA Merlin; 3-4 leaf, 24 d, 10 g a.i./ha): 50%
- Effect (GLXMA Merlin; 3-4 leaf, 24 d, 20 g a.i./ha): 50%
- Effect (BRAPP; 3-4 leaf, 14 d, 10 g a.i./ha): 15%
- Effect (BRAPP; 3-4 leaf, 14 d, 20 g a.i./ha): 25%
- Effect (BRAPP; 3-4 leaf, 24 d, 20 g a.i./ha): 15%
- Effect (SETFA; 14 d, 5 g a.i./ha): 15%
- Effect (SORHA; 1-2 leaf, 14 d, 5 g a.i./ha): 0%
- Effect (BIDPI; 3-4 leaf, 24 d, 20 g a.i./ha): 30%
- Effect (EPHHL; 3-4 leaf, 24 d, 10 g a.i./ha): 40%
- Effect (POLCO; 3-4 leaf, 14 d, 10 g a.i./ha): 50%
- Effect (POLCO; 3-4 leaf, 14 d, 20 g a.i./ha): 50%
- Effect (POLCO; 3-4 leaf, 24 d, 10 g a.i./ha): 35%

SMILES: CS(=O)(=O)c1ccc(C(=O)C2C(=O)CCCC2=O)c([N+](=O)[O-])c1 [(A2), 2-(4-mesyl-2-nitrobenzoyl)cyclohexane-1,3-dione]
- Effect (GLXMA GM_W336; [5]): 20%
- Effect (GLXMA GM_W336; [6]): 15%
- Effect (GLXMA GM_W336; [7]): 15%
- Effect (GLXMA GM_W336; [8]): 25%
- Effect (GLXMA GM_W336; [9]): 15%
- Effect (GLXMA GM_W336; [10]): 25%
- Effect (GLXMA Protina; [5]): 45%
- Effect (GLXMA Protina; [6]): 15%
- Effect (GLXMA Protina; [7]): 20%
- Effect (GLXMA Protina; [8]): 40%
- Effect (GLXMA Protina; [10]): 50%
- Effect (GLXMA Merlin; [9]): 30%
- Effect (BRAPP; [5]): 50%
- Effect (BRAPP; [7]): 25%
- Effect (BRAPP; [8]): 35%
- Effect (SETVI; 5 g a.i./ha alone): 0%
- Effect (SORHA; [6]): 0%
- Effect (SORHA; [9]): 0%
- Effect (SORHA; [10]): 15%
- Effect (BIDPI; [8]): 20%
- Effect (EPHHL; [5]): 30%
- Effect (EPHHL; [7]): 10%
- Effect (EPHHL; [8]): 10%
- Effect (PHBPU; [7]): 75%
- Effect (POLCO; [7]): 20%
- Effect (POLCO; [9]): 20%
- Effect (POLCO; [10]): 65%
